Assay results reported in ChEMBL document CHEMBL2202961, “Antiproliferative activity of salinomycin and its derivatives” (Bioorg Med Chem Lett, 2012).
pIC50: −log10 of the molar value. ≈ marks a conversion by molar mass, not a printed value.

Legend:
LoVo [1] = assay: Selectivity index, ratio of IC50 for mouse BALB/3T3 cells to IC50 for human LoVo cells; format: functional
BALB/3T3 [2] = assay: Selectivity index, ratio of IC50 for mouse BALB/3T3 cells to IC50 for human HL60 cells; format: functional
BALB/3T3 [3] = assay: Selectivity index, ratio of IC50 for mouse BALB/3T3 cells to IC50 for human vincristine-resistant human HL60/Vinc cells; format: functional
[4] = Cytotoxicity against vincristine-resistant human HL60/Vinc cells incubated for 72 hrs by MTT assay; format: functional, cell-based
HL-60 [5] = assay: Cytotoxicity against human HL60 cells incubated for 72 hrs by MTT assay; conditions: HL-60, 72 h
LoVo [6] = assay: Cytotoxicity against human LoVo cells incubated for 72 hrs by MTT assay; format: functional, cell-based
BALB/3T3 [7] = assay: Selectivity index, ratio of IC50 for mouse BALB/3T3 cells to IC50 doxorubicin-resistant human LoVo/DX cells
BALB/3T3 [8] = assay: Cytotoxicity against mouse BALB/3T3 cells incubated for 72 hrs by MTT assay; format: cell-based; conditions: BALB/3T3, 72 h
HL-60 [9] = assay: Resistance index, ratio of IC50 for vincristine-resistant human HL60/Vinc cells to IC50 for parental human HL60 cells; format: functional
[10] = Cytotoxicity against doxorubicin-resistant human LoVo/DX cells incubated for 72 hrs by MTT assay; format: functional, cell-based
LoVo [11] = assay: Resistance index, ratio of IC50 for doxorubicin-resistant human LoVo/DX cells to IC50 for parental human LoVo cells; format: functional
Staphylococcus aureus = assay: Antimicrobial activity against methicillin-resistant Staphylococcus aureus; format: functional

SMILES | Ratio IC50 (LoVo [1]) | Ratio IC50 (BALB/3T3 [2]) | Ratio IC50 (BALB/3T3 [3]) | pIC50 [4] | pIC50 (HL-60 [5]) | pIC50 (LoVo [6]) | Ratio IC50 (BALB/3T3 [7]) | pIC50 (BALB/3T3 [8]) | Ratio IC50 (HL-60 [9]) | pIC50 [10] | Ratio IC50 (LoVo [11]) | MIC (Staphylococcus aureus) [µg/mL]
CC[C@@H](C(=O)[C@@H](C)[C@@H](O)[C@H](C)[C@@H]1O[C@@H]([C@@H](CC)C(=O)Nc2ccccc2)CC[C@@H]1C)[C@H]1O[C@]2(C=C[C@@H](O)[C@]3(CC[C@@](C)([C@H]4CC[C@](O)(CC)[C@H](C)O4)O3)O2)[C@H](C)C[C@@H]1C | 1.72 | 1.86 | 1.64 | 5.37 | 5.42 | 5.39 | 2.21 | 5.15 | 1.14 | 5.49 | 0.78 | 
CCCCNC(=O)[C@H](CC)[C@H]1CC[C@H](C)[C@H]([C@@H](C)[C@H](O)[C@H](C)C(=O)[C@H](CC)[C@H]2O[C@]3(C=C[C@@H](O)[C@]4(CC[C@@](C)([C@H]5CC[C@](O)(CC)[C@H](C)O5)O4)O3)[C@H](C)C[C@@H]2C)O1 | 2.03 | 2.12 | 1.55 | 5.27 | 5.41 | 5.39 | 2.56 | 5.09 | 1.37 | 5.49 | 0.81 | 
CC[C@@H](C(=O)[C@@H](C)[C@@H](O)[C@H](C)[C@@H]1O[C@@H]([C@@H](CC)C(=O)NCc2ccccc2)CC[C@@H]1C)[C@H]1O[C@]2(C=C[C@@H](O)[C@]3(CC[C@@](C)([C@H]4CC[C@](O)(CC)[C@H](C)O4)O3)O2)[C@H](C)C[C@@H]1C | 1.81 | 2 | 1.21 | 5.22 | 5.44 | 5.40 | 2.19 | 5.14 | 1.66 | 5.48 | 0.82 | 
CC[C@@H](C(=O)[C@@H](C)[C@@H](O)[C@H](C)[C@@H]1O[C@@H]([C@@H](CC)C(=O)NCCc2c[nH]c3ccccc23)CC[C@@H]1C)[C@H]1O[C@]2(C=C[C@@H](O)[C@]3(CC[C@@](C)([C@H]4CC[C@](O)(CC)[C@H](C)O4)O3)O2)[C@H](C)C[C@@H]1C | 2.9 | 2.84 | 2.31 | 5.37 | 5.45 | 5.46 | 3.59 | 5.00 | 1.22 | 5.56 | 0.81 | 
CC[C@@H](C(=O)[C@@H](C)[C@@H](O)[C@H](C)[C@@H]1O[C@@H]([C@@H](CC)C(=O)NCCOCCOCCOC)CC[C@@H]1C)[C@H]1O[C@]2(C=C[C@@H](O)[C@]3(CC[C@@](C)([C@H]4CC[C@](O)(CC)[C@H](C)O4)O3)O2)[C@H](C)C[C@@H]1C | 1.31 | 1.57 | 1.34 | 4.54 | 4.60 | 4.52 | 1.28 | 4.41 | 1.17 | 4.51 | 1.03 | 
CC[C@@H](C(=O)[C@@H](C)[C@@H](O)[C@H](C)[C@@H]1O[C@@H]([C@@H](CC)C(=O)On2nnc3ccccc32)CC[C@@H]1C)[C@H]1O[C@]2(C=C[C@@H](O)[C@]3(CC[C@@](C)([C@H]4CC[C@](O)(CC)[C@H](C)O4)O3)O2)[C@H](C)C[C@@H]1C | 7.76 | 17.33 | 6.08 | 5.28 | 5.74 | 5.39 | 4.83 | 4.50 | 2.85 | 5.18 | 1.61 | 1 (≈ 1.15 µM)
CC[C@@H](C(=O)[C@@H](C)[C@@H](O)[C@H](C)[C@@H]1O[C@@H]([C@@H](CC)C(=O)Nc2ccc3c(c2)OCCOCCOCCOCCO3)CC[C@@H]1C)[C@H]1O[C@]2(C=C[C@@H](O)[C@]3(CC[C@@](C)([C@H]4CC[C@](O)(CC)[C@H](C)O4)O3)O2)[C@H](C)C[C@@H]1C | 4.08 | 8.27 | 3.71 | 5.16 | 5.51 | 5.20 | 4.51 | 4.59 | 2.23 | 5.25 | 0.91 | 
CC[C@@H](C(=O)[C@@H](C)[C@@H](O)[C@H](C)[C@@H]1O[C@@H]([C@@H](CC)C(=O)NCCCN2CCOCC2)CC[C@@H]1C)[C@H]1O[C@]2(C=C[C@@H](O)[C@]3(CC[C@@](C)([C@H]4CC[C@](O)(CC)[C@H](C)O4)O3)O2)[C@H](C)C[C@@H]1C | 1.92 | 6.16 | 1.23 | 4.55 | 5.25 | 4.74 | 1.78 | 4.46 | 4.99 | 4.71 | 1.08 | 
COc1cccc2c1C(=O)c1c(O)c3c(c(O)c1C2=O)C[C@@](O)(C(=O)CO)C[C@@H]3O[C@H]1C[C@H](N)[C@H](O)[C@H](C)O1 [DOXORUBICIN] |  |  |  | 6.04 |  | 6.42 |  | 5.72 |  | 4.92 |  | 
CC[C@@H](C(=O)[C@@H](C)[C@@H](O)[C@H](C)[C@@H]1O[C@@H]([C@@H](CC)C(=O)O)CC[C@@H]1C)[C@H]1O[C@]2(C=C[C@@H](O)[C@]3(CC[C@@](C)([C@H]4CC[C@](O)(CC)[C@H](C)O4)O3)O2)[C@H](C)C[C@@H]1C [SALINOMYCIN] | 25.3 | 63.81 | 8.16 | 5.46 | 6.36 | 5.95 | 4.51 | 4.55 | 7.82 | 5.21 | 5.61 | 
